Data on two compounds can be found in ChEMBL document CHEMBL3784936, “Classification of matching molecular series on the basis of SAR phenotypes and structural relationships” (Medchemcomm, 2016).

One experiment addresses T1, Oxytocin receptor (Homo sapiens, UniProt P30559).
T1 sequence (P30559 whole entry): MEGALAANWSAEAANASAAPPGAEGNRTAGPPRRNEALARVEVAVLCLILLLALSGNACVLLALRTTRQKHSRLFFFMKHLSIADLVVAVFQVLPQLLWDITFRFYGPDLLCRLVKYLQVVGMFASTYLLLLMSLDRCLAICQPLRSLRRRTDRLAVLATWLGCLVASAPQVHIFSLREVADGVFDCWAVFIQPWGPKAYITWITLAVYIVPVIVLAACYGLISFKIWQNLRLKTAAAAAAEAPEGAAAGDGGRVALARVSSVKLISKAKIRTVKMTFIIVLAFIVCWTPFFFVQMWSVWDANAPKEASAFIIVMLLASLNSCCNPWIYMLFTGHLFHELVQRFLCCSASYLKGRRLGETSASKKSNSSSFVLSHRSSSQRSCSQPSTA
Nature of the experiment: Inhibition of oxytocin receptor (unknown origin).

The target of the next experiment is T2, Adenosine receptor A3 (Homo sapiens, UniProt P0DMS8).
T2 sequence (P0DMS8 whole entry): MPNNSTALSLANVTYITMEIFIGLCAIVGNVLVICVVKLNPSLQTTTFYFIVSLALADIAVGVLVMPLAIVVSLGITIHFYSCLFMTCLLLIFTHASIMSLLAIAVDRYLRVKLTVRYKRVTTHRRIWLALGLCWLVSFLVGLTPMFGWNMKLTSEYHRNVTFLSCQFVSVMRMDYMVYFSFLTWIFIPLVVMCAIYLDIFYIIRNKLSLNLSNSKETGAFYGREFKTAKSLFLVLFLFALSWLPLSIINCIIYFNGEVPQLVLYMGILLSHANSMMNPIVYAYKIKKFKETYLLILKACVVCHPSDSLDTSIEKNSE
Nature of the experiment: Inhibition of adenosine A3 receptor (unknown origin).

Usually Ki stands for a measure of affinity in units of concentration, obtained from inhibition or displacement. Low readings indicate higher affinity, high ones lower affinity. In turn, `CCCCOc1ccc(S(=O)(=O)N(CC(=O)N/N=C2\C(=O)Nc3ccccc32)c2ccc(Cl)cc2)cc1` gave a Ki on Oxytocin receptor of 17.8 nM. `Nc1ncnc2c1ncn2[C@@H]1O[C@H](C(=O)NC2CC2)[C@@H](O)[C@H]1O`: the Ki on Adenosine receptor A3 is 178 nM.
